Experimental data published in the supplement of paper PMC6045584.
± gives the standard deviation of the averaged measurements.

Key:
[1] = compound: CNCc1ccc(-c2[nH]c3cc(F)cc4c3c2CCNC4=O)cc1; experiment: surviving fraction relative to DMSO-only wells; higher = less growth inhibition; conditions: exposure time: 5 days
How it was run: (§1)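 Inhibitors were tested at 0.5, 1, 5, 10, 50, 100, 500 and 1000 nM, applied continuously for five days beginning 24 hours after log-phase tumour cells were seeded at 250–500 per well in 384-well plates. CellTiter-Glo luminescence served as the viability measure, expressed as surviving fraction against the median of DMSO-only wells. Each line, screened three times, was kept only with replicate Pearson r >0.7 and median Z' >0.3.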

[2] = compound: C[C@@H](Oc1cc(-c2cnn(C3CCNCC3)c2)cnc1N)c1c(Cl)ccc(F)c1Cl; experiment: as above; conditions: exposure time: 5 days
How it was run: as §1

Test System	surviving fraction ([1]; 0.5 nM)	surviving fraction ([1]; 1 nM)	surviving fraction ([1]; 5 nM)	surviving fraction ([1]; 10 nM)	surviving fraction ([1]; 50 nM)	surviving fraction ([1]; 100 nM)	surviving fraction ([1]; 500 nM)	surviving fraction ([1]; 1000 nM)	surviving fraction ([2]; 0.5 nM)	surviving fraction ([2]; 1 nM)	surviving fraction ([2]; 5 nM)	surviving fraction ([2]; 10 nM)	surviving fraction ([2]; 50 nM)	surviving fraction ([2]; 100 nM)	surviving fraction ([2]; 500 nM)	surviving fraction ([2]; 1000 nM)
CAL51 BREAST	0.935 ± 0.033	0.96 ± 0.04	0.927 ± 0.023	0.848 ± 0.052	0.954 ± 0.019	0.819 ± 0.021	0.706 ± 0.035	0.604 ± 0.021	0.958 ± 0.033	0.918 ± 0.099	1 ± 0.023	0.909 ± 0.049	0.972 ± 0.046	0.949 ± 0.026	0.215 ± 0.017	0.175 ± 0.0096
C33A CERVIX	0.991 ± 0.071	0.993 ± 0.078	1.02 ± 0.085	0.937 ± 0.095	1.09 ± 0.13	0.963 ± 0.041	1.25 ± 0.024	0.707 ± 0.0089	1.01 ± 0.068		1.08 ± 0.13	1.14 ± 0.059	1.06 ± 0.044		0.565 ± 0.028	0.515 ± 0.011
HSSYII SYNOVIAL	0.918 ± 0.023	0.915 ± 0.074	0.881 ± 0.028	0.861 ± 0.027	0.696 ± 0.055	0.653 ± 0.041	0.473 ± 0.05	0.343 ± 0.021	0.85 ± 0.056	0.882 ± 0.039	0.81 ± 0.03	0.861 ± 0.036	0.848 ± 0.021	0.794 ± 0.035	0.261 ± 0.0051	0.122 ± 0.01
HUO3N1 BONE	1.04 ± 0.061	1.02 ± 0.062	1.04 ± 0.038	0.987 ± 0.099	0.933 ± 0.06	0.988 ± 0.04	0.884 ± 0.039	0.85 ± 0.032			0.971 ± 0.034		0.974 ± 0.02	0.954 ± 0.029	0.842 ± 0.019	0.695 ± 0.031
ZR751 BREAST	0.991 ± 0.15	0.962 ± 0.049	0.981 ± 0.075	1.1 ± 0.11	0.873 ± 0.056	0.903 ± 0.075	0.823 ± 0.037	0.709 ± 0.12	0.874 ± 0.087	0.924 ± 0.052	0.873 ± 0.082	0.797 ± 0.046	0.82 ± 0.14	0.967 ± 0.052	0.727 ± 0.074	0.699 ± 0.077
BT549 BREAST	0.958 ± 0.011	1.01 ± 0.16	0.972 ± 0.078	1.04 ± 0.081	0.753 ± 0.13	0.818 ± 0.073	0.828 ± 0.069	0.881 ± 0.056	0.76 ± 0.093	0.99 ± 0.11		0.905 ± 0.019	1.1 ± 0.073			0.371 ± 0.042
JIMT1 BREAST	0.948 ± 0.055	0.945 ± 0.052	0.98 ± 0.067	0.9615 ± 0.0036	0.881 ± 0.045	0.885 ± 0.05	0.864 ± 0.031	0.856 ± 0.054	0.869 ± 0.035	0.834 ± 0.024	0.893 ± 0.04	0.862 ± 0.033	0.971 ± 0.045	0.959 ± 0.038	0.634 ± 0.075	0.517 ± 0.042
PCI30 HEADNECK	0.981 ± 0.059	1.04 ± 0.059	0.912 ± 0.019	0.937 ± 0.037	0.916 ± 0.056	0.944 ± 0.062	0.964 ± 0.044	0.956 ± 0.038	0.959 ± 0.036		1.07 ± 0.058		1.06 ± 0.076	1.11 ± 0.046	0.679 ± 0.039	0.513 ± 0.016
SJSA1 BONE	1.35 ± 0.059	1.7 ± 0.1	1.6 ± 0.045	1.8 ± 0.1	1.7 ± 0.073	1.76 ± 0.059	1.65 ± 0.017	1.74 ± 0.068	0.881 ± 0.019	0.9053 ± 0.0031	0.912 ± 0.062	0.935 ± 0.023	1.06 ± 0.069	1.05 ± 0.05	0.889 ± 0.053	0.622 ± 0.0085
MDAMB157 BREAST	0.959 ± 0.026	0.91 ± 0.025	1.04 ± 0.053	1.03 ± 0.09	0.921 ± 0.088	1 ± 0.12	0.73 ± 0.03	0.691 ± 0.015		0.818 ± 0.016	0.967 ± 0.042	0.95 ± 0.029	0.877 ± 0.038	0.836 ± 0.097	0.451 ± 0.017	0.569 ± 0.071
BT20 BREAST	1.09 ± 0.095	1.05 ± 0.055	1.03 ± 0.081	1.04 ± 0.059	0.792 ± 0.14	0.814 ± 0.046	0.815 ± 0.11	0.872 ± 0.014	0.82 ± 0.047	0.792 ± 0.032	0.808 ± 0.092	0.821 ± 0.071	1 ± 0.074	1 ± 0.052	0.786 ± 0.04	0.468 ± 0.078
